# Source: patent publication US5821219A (priority 1995, dated 1998)
# Assays:
# [1] = target: T1, novel mammalian opioid receptor (LC132, MSOR, OFQR) (Rattus norvegicus, UniProt P35370); experiment: biochemical; assay type: binding
# T1 construct: The entire coding region of the receptor cDNA insert was subcloned into the RcRSV vector; expressed in transfected cells
# mice [2] = experiment: Morphine hypothermia and Straub tail in DBA/2J mice
# mice [3] = experiment: Reversal of morphine analgesia, 49° C. tail withdrawal latency; assay type: in vivo, mouse; conditions: morphine sulfate 5 mg/kg sc
# mice [4] = test system: mice; parameters: dose or concentration left out as unconfirmed
# mice [5] = experiment: Acetic acid abdominal constriction (writhing) test; assay type: in vivo, mouse; conditions: NAL 1 mg/kg and 10 mg/kg sc
# Description: The AC assay was a modification of the technique originally described by Koster et al. Mice (N=9-15 per group) were acclimated to individual cylindrical Plexiglass observation chambers for >30 minutes. […] A separate group of Sal-treated mice received no icv injection (None). Between 5 and 10 minutes later, all mice were given an intraperitoneal (ip) injection of 0.9% acetic acid and placed back in their observation chambers. For the next 30 minutes, the number of abdominal constrictions (lengthwise stretches of the torso with a concomitant concave arching of the back) were counted and recorded. Four mice in separate chambers were observed simultaneously by a single experimenter blind to drug condition.
# T1 sequence (P35370 whole entry): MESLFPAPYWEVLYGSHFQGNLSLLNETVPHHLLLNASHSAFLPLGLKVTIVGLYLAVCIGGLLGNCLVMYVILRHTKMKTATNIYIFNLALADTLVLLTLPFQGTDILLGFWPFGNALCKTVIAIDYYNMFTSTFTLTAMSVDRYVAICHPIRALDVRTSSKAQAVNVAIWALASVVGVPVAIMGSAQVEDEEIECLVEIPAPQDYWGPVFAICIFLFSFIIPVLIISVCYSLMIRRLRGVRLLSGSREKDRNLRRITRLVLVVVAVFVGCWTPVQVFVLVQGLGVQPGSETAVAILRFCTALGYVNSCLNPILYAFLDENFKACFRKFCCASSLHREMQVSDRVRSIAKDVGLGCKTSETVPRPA
molecule,measurement,setting,value
"C[C@@H](NC(=O)[C@@H](N)Cc1ccc(O)cc1)C(=O)NCC(=O)N(C)[C@@H](Cc1ccccc1)C(=O)NCCO [DAMGO, Tyr-DAla-Gly-Met-Phe-Gly-ol]",specific binding of the radioactively-labeled ligand,[1],no specific binding
"CC1(C)SSC(C)(C)[C@@H](NC(=O)[C@@H](N)Cc2ccc(O)cc2)C(=O)NCC(=O)N[C@@H](Cc2ccccc2)C(=O)N[C@H]1C(=O)O [DPDPE, c[D-penicillamine^2, D-penicillamine^5]enkephalin]",specific binding of the radioactively-labeled ligand,[1],no specific binding
CCC12CCN(CC3(O)CC3)C(Cc3ccc(O)cc31)C2(C)C (stereo not shown) [bremacozine],specific binding of the radioactively-labeled ligand,[1],no specific binding
CN1CC[C@]23c4c5ccc(O)c4O[C@H]2[C@@H](O)CC[C@H]3[C@H]1C5 [dihydromorphine],specific binding of the radioactively-labeled ligand,[1],no specific binding
CC[C@]12CCN(CC3CC3)[C@H](C(=O)c3ccc(O)cc31)[C@@H]2C [ethylketocyclazocine],specific binding of the radioactively-labeled ligand,[1],no specific binding
CCC(=O)C(CC(C)N(C)C)(c1ccccc1)c1ccccc1 (stereo not shown) [methadone],Bmax,[1],400-450 fentomoles/μg protein
same,Kd,[1],~100 pM
same,specific binding of the radioactively-labeled ligand,[1],specific binding was found
CN1CC[C@]23c4c5ccc(O)c4O[C@H]2[C@@H](O)C=C[C@H]3[C@H]1C5 [morphine],decrease in body temperature,"mice [2]; MOR 20 mg/kg i.p., DBA/2J mice",6 °C
same,Straub tail,mice [2]; morphine 20 mg/kg,produced Straub tail
same,duration of analgesia,mice [3],about 2 hours
same,time of peak analgesia,mice [3]; post-injection,30 min
C=CCN1CC[C@]23c4c5ccc(O)c4O[C@H]2C(=O)CC[C@@]3(O)[C@H]1C5 [naloxone],hyperalgesia in TW test,mice [4],In no case did any mouse treated with OFQ or naloxone exhibit hyperalgesia
same,stress-induced analgesia: post-injection increase in TW latency,"mice [4]; 46° C. water, p<0.05",attenuated the 4 s post-injection increase in TW latency
same,decreased number of abdominal constrictions due to SIA,mice [5],reversed
β-endorphin,specific binding of the radioactively-labeled ligand,[1],no specific binding
